# Measurements: patent US20120029187A1, “HALOALKYLSULFONANILIDE DERIVATIVE” (Nissan Chemical Industries, Ltd., priority 2009, published 2012)
# Tests used:
# Assay type in all cases: in vivo
# [1] = test system: barnyardgrass; assay: Comparative Example 2: herbicidal effects on barnyardgrass during the vegetation period under submerged conditions; settings: applied to water surface at the 2- or 2.5-leaf stage, three weeks after application
# Protocol: Comparative Example 2 Test on the Herbicidal Effects on Barnyardgrass During the Vegetation Period Under Submerged Conditions Alluvial soil was put in 1/30000-are styrol cups and admixed with water so that it was submerged at a depth of 4 cm. In each cup, seeds of barnyardgrass were sown, and the cups were placed in a greenhouse at 25 to 30° C. to grow the plants. When the barnyardgrass reached the 2- or 2.5-leaf stage, emulsifiable concentrates containing compounds of the present invention and the comparative compounds formulated in accordance with Formulation Example 2 were applied to the water surfaces at predetermined doses after diluted with water. Three weeks after the application, the herbicidal effects were determined on the same evaluation scale as in Test Example 1. The symbol A in the table is the same as defined above.
# [2] = test system: barnyardgrass; assay: Comparative Example 1: herbicidal effects in preemergence treatment on barnyardgrass under submerged conditions; settings: applied to water surface on the day of seeding, three weeks after application
# Excerpt: Comparative Example 1 Test on the Herbicidal Effects in Preemergence Treatment on Barnyardgrass Under Submerged Conditions Alluvial soil was put in 1/30000-are styrol cups and admixed with water so that it was submerged at a depth of 4 cm. In each cup, seeds of barnyardgrass were sown, and on the same day as the seeding, emulsifiable concentrates containing compounds of the present invention formulated in accordance with Formulation Example 2 were applied to the water surfaces at predetermined doses after diluted with water. The cups were placed in a greenhouse at 25 to 30° C. to grow the plants. Three weeks after the application, the herbicidal effects against barnyardgrass were determined on the following evaluation scale. The symbol A in the table means barnyardgrass.
# [3] = test system: barnyardgrass; assay: Test Example 1: herbicidal effects in preemergence treatment under submerged conditions; settings: dose 2.52 g/a
# In short: (§1)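 Flooded-paddy preemergence assay; EC diluted with water, surface-applied at weed seeding; doses g/a; rice transplanted at 2.5 leaves; 0–5 mortality score after 3 weeks.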
# [4] = test system: bulrush; assay: as above; settings: dose 2.52 g/a
# In short: as §1
# [5] = test system: ducksalad; assay: as above; settings: dose 2.52 g/a
# In short: as §1
# [6] = test system: barnyardgrass; assay: Test Example 2: herbicidal effects during the vegetation period under submerged conditions; settings: treatment during the vegetation period under submerged conditions; dose 2.52 g/a
# In short: (§2)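 Barnyardgrass, bulrush and ducksalad were co-sown in alluvial soil flooded to 4 cm and grown in a greenhouse at 25 to 30° C. At the 1- or 2-leaf stage, water-diluted emulsifiable concentrates went onto the water surface at set doses (g/a). Herbicidal effect was scored three weeks later on a graded scale.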
# [7] = test system: bulrush; assay: as above; settings: treatment during the vegetation period under submerged conditions; dose 2.52 g/a
# In short: as §2
# [8] = test system: ducksalad; assay: as above; settings: treatment during the vegetation period under submerged conditions; dose 2.52 g/a
# In short: as §2
# [9] = test system: transplanted rice; assay: Test Example 1: preemergence treatment under submerged conditions, effect on crop; settings: dose 2.52 g/a
# In short: as §1
# [10] = test system: common lambsquater; assay: Test Example 3: herbicidal effects in soil treatment; settings: dose 3.2 g/a
# In short: (§3)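 Seeds were sown in sterilized diluvial soil and covered with about 1.5 cm of soil. Compounds, formulated as emulsifiable concentrates and diluted with water, were sprayed evenly over the soil surface at set doses in g/a. Herbicidal effect was scored on a rating scale three weeks later.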
# [11] = test system: beadstraw; assay: as above; settings: dose 3.2 g/a
# In short: as §3
# [12] = test system: common chickweed; assay: as above; settings: dose 3.2 g/a
# In short: as §3
# [13] = test system: common ragweed; assay: as above; settings: dose 3.2 g/a
# In short: as §3
# [14] = test system: barnyardgrass; assay: as above; settings: dose 3.2 g/a
# In short: as §3
# [15] = test system: wild oat; assay: as above; settings: dose 3.2 g/a
# In short: as §3
# [16] = test system: posumbu knotweed; assay: as above; settings: dose 3.2 g/a
# In short: as §3
# [17] = test system: large crabgrass; assay: as above; settings: dose 3.2 g/a
# In short: as §3
# [18] = test system: water foxtail; assay: as above; settings: dose 3.2 g/a
# In short: as §3
# [19] = test system: giant foxtail; assay: as above; settings: dose 3.2 g/a
# In short: as §3
# [20] = test system: Italian ryegrass; assay: as above; settings: dose 3.2 g/a
# In short: as §3
# [21] = test system: redroot pigweed; assay: as above; settings: dose 3.2 g/a
# In short: as §3
# [22] = test system: velvetleaf; assay: as above; settings: dose 3.2 g/a
# In short: as §3
# [23] = test system: common lambsquater; assay: Test Example 4: herbicidal effect in foliage treatment; settings: dose 3.2 g/a, three weeks after application
# In short: (§4)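 Weeds and crops sown in sterilized diluvial soil under ~1.5 cm cover and grown in greenhouse at 25 to 30° C. At 14 days, water-diluted emulsifiable concentrate sprayed onto foliage at set doses (g/a); herbicidal effect scored on a rating scale three weeks after application.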
# [24] = test system: beadstraw; assay: as above; settings: dose 3.2 g/a, three weeks after application
# In short: as §4
# [25] = test system: common chickweed; assay: as above; settings: dose 3.2 g/a, three weeks after application
# In short: as §4
# [26] = test system: common ragweed; assay: as above; settings: dose 3.2 g/a, three weeks after application
# In short: as §4
# [27] = test system: barnyardgrass; assay: as above; settings: dose 3.2 g/a, three weeks after application
# In short: as §4
# [28] = test system: wild oat; assay: as above; settings: dose 3.2 g/a, three weeks after application
# In short: as §4
# [29] = test system: posumbu knotweed; assay: as above; settings: dose 3.2 g/a, three weeks after application
# In short: as §4
# [30] = test system: large crabgrass; assay: as above; settings: dose 3.2 g/a, three weeks after application
# In short: as §4
# [31] = test system: water foxtail; assay: as above; settings: dose 3.2 g/a, three weeks after application
# In short: as §4
# [32] = test system: giant foxtail; assay: as above; settings: dose 3.2 g/a, three weeks after application
# In short: as §4
# [33] = test system: Italian ryegrass; assay: as above; settings: dose 3.2 g/a, three weeks after application
# In short: as §4
# [34] = test system: redroot pigweed; assay: as above; settings: dose 3.2 g/a, three weeks after application
# In short: as §4
# [35] = test system: velvetleaf; assay: as above; settings: dose 3.2 g/a, three weeks after application
# In short: as §4
smiles,measurement,setting,value
"CC(C)COC(O)N(c1ccccc1CN1CCCOC1=O)S(=O)(=O)C(F)(F)F (stereo not drawn) [a, reference compound]","herbicidal effect, A (barnyardgrass)",[1]; dose 0.16 g/a,0 (mortality of less than 5% (almost ineffective))
same,"herbicidal effect, A (barnyardgrass)",[1]; dose 0.64 g/a,0 (mortality of less than 5% (almost ineffective))
same,"herbicidal effect, A (barnyardgrass)",[1]; dose 2.52 g/a,5 (mortality of 90% or above (nearly complete death))
same,"herbicidal effect, A (barnyardgrass)",[2]; dose 0.16 g/a,0 (mortality of less than 5% (almost ineffective))
same,"herbicidal effect, A (barnyardgrass)",[2]; dose 0.64 g/a,5 (mortality of 90% or above (nearly complete death))
same,"herbicidal effect, A (barnyardgrass)",[2]; dose 2.52 g/a,5 (mortality of 90% or above (nearly complete death))
CC(C)COC(=O)N(c1ccccc1CN1COC(C)(C)C(F)C1=O)S(=O)(=O)C(F)(F)F (stereo not drawn) [II-36],"A: barnyardgrass, herbicidal effect (evaluation scale 0-5)",[3],5 (mortality of 90% or above (nearly complete death))
same,"B: bulrush, herbicidal effect (evaluation scale 0-5)",[4],5 (mortality of 90% or above (nearly complete death))
same,"C: ducksalad, herbicidal effect (evaluation scale 0-5)",[5],5 (mortality of 90% or above (nearly complete death))
same,"A: barnyardgrass, herbicidal effect (evaluation scale 0-5)",[6],5 (mortality of 90% or above (nearly complete death))
same,"B: bulrush, herbicidal effect (evaluation scale 0-5)",[7],5 (mortality of 90% or above (nearly complete death))
same,"C: ducksalad, herbicidal effect (evaluation scale 0-5)",[8],5 (mortality of 90% or above (nearly complete death))
same,"a: transplanted rice, effect on crop (evaluation scale 0-5)",[9],0 (mortality of less than 5% (almost ineffective))
same,"L: common lambsquater, herbicidal effect (evaluation scale 0-5)",[10],0 (mortality of less than 5% (almost ineffective))
same,"O: beadstraw, herbicidal effect (evaluation scale 0-5)",[11],4 (mortality of at least 70% and less than 90%)
same,"N: common chickweed, herbicidal effect (evaluation scale 0-5)",[12],4 (mortality of at least 70% and less than 90%)
same,"J: common ragweed, herbicidal effect (evaluation scale 0-5)",[13],4 (mortality of at least 70% and less than 90%)
same,"A: barnyardgrass, herbicidal effect (evaluation scale 0-5)",[14],5 (mortality of 90% or above (nearly complete death))
same,"F: wild oat, herbicidal effect (evaluation scale 0-5)",[15],0 (mortality of less than 5% (almost ineffective))
same,"M: posumbu knotweed, herbicidal effect (evaluation scale 0-5)",[16],4 (mortality of at least 70% and less than 90%)
same,"D: large crabgrass, herbicidal effect (evaluation scale 0-5)",[17],4 (mortality of at least 70% and less than 90%)
same,"G: water foxtail, herbicidal effect (evaluation scale 0-5)",[18],5 (mortality of 90% or above (nearly complete death))
same,"E: giant foxtail, herbicidal effect (evaluation scale 0-5)",[19],3 (mortality of at least 40% and less than 70%)
same,"H: Italian ryegrass, herbicidal effect (evaluation scale 0-5)",[20],0 (mortality of less than 5% (almost ineffective))
same,"K: redroot pigweed, herbicidal effect (evaluation scale 0-5)",[21],0 (mortality of less than 5% (almost ineffective))
same,"I: velvetleaf, herbicidal effect (evaluation scale 0-5)",[22],3 (mortality of at least 40% and less than 70%)
same,"L: common lambsquater, herbicidal effect",[23],1 (mortality of at least 5% and less than 20%)
same,"O: beadstraw, herbicidal effect",[24],3 (mortality of at least 40% and less than 70%)
same,"N: common chickweed, herbicidal effect",[25],3 (mortality of at least 40% and less than 70%)
same,"J: common ragweed, herbicidal effect",[26],3 (mortality of at least 40% and less than 70%)
same,"A: barnyardgrass, herbicidal effect",[27],5 (mortality of 90% or above (nearly complete death))
same,"F: wild oat, herbicidal effect",[28],0 (mortality of less than 5% (almost ineffective))
same,"M: posumbu knotweed, herbicidal effect",[29],2 (mortality of at least 20% and less than 40%)
same,"D: large crabgrass, herbicidal effect",[30],4 (mortality of at least 70% and less than 90%)
same,"G: water foxtail, herbicidal effect",[31],4 (mortality of at least 70% and less than 90%)
same,"E: giant foxtail, herbicidal effect",[32],3 (mortality of at least 40% and less than 70%)
same,"H: Italian ryegrass, herbicidal effect",[33],2 (mortality of at least 20% and less than 40%)
same,"K: redroot pigweed, herbicidal effect",[34],0 (mortality of less than 5% (almost ineffective))
same,"I: velvetleaf, herbicidal effect",[35],2 (mortality of at least 20% and less than 40%)
